Where a name gives a salt, the structure may show the parent alone.
molecular target: T1, human HSL (Homo sapiens, UniProt Q05469); experiment: Human Hormone-Sensitive Lipase (HSL) enzyme inhibition assay (colorimetric, DMPT substrate); format: biochemical; conditions: read-out: HSL hum IC50
T1 construct: generate a full length human HSL ORF with a 3′-His6 tag; His6 (C); made in house; host or cells: High 5 insect cells (baculovirus, pFast-BAC)
T1 sequence (Q05469 1-1076): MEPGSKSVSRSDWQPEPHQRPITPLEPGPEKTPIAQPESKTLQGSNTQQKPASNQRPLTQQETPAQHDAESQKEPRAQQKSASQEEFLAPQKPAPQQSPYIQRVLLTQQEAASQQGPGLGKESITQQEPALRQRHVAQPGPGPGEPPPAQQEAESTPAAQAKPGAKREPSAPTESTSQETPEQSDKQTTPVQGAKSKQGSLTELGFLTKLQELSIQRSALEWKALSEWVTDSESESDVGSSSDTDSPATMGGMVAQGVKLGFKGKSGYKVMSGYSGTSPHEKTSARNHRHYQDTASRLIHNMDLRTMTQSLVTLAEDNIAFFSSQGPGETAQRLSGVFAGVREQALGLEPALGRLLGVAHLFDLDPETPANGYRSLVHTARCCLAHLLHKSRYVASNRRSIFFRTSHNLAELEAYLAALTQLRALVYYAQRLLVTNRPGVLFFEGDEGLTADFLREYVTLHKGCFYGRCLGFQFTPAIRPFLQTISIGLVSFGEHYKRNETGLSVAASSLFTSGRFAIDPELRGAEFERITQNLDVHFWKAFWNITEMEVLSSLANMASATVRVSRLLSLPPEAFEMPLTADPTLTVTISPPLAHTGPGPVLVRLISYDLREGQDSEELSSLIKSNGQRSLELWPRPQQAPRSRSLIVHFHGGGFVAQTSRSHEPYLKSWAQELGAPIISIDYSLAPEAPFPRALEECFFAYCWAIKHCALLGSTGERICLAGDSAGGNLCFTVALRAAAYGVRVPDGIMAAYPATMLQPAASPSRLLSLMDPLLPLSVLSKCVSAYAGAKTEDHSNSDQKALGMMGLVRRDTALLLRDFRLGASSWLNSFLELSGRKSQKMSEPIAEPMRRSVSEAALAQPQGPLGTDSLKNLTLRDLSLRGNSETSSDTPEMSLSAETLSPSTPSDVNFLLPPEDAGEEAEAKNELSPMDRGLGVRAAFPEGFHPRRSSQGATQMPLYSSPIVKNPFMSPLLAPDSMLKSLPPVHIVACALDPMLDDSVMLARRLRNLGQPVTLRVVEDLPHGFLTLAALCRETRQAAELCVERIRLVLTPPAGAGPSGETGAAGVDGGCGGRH
Protocol: Production of Human Full Length Hormone Sensitive Lipase-His^6
1) Cloning: cDNA was prepared from commercial human brain polyA+ RNA and used as a template in overlapping PCR to generate a full length human HSL ORF with a 3′-His6 tag. This full length insert was cloned into the pFast-BAC vector and the DNA-sequence of several single clones was verified. DNA from a correct full length clone with the 3′His6 tag was used to transform the E. coli strain DH10BAC. Resulting bacmid DNA was used to generate a titered baculovirus stock for protein generation. The sequence of the encoded HSL conforms to Swissprot entry Q05469, with the additional C-terminal His6-tag.
2) Protein purification: Culture: 5.5 L, High 5 cells expressing human full length HSL-His^6, 48 hr., containing 25 μM E-64. Cell count: […], 90% viable.
Cells were thawed. On ice, cells were suspended in Base Buffer containing 10% glycerol, 25 mM Tris-Cl, 300 mM NaCl, 10 mM imidazole, 10 mM 2-mercaptoethanol, 2 μg pepstatin/ml, 2 μg leupeptin/ml, 2 μg antipain/ml, pH 8.0 at 4° C. in a final volume of 475 ml with 3.75×10^7 cells/ml. […] was done at 3×30 sec., Lubrol PX was added to 0.2% final concentration followed by stirring for 15 min. at 4° C. and centrifugation at 25 k×g, 60 min., 4° C. Soluble proteins were mixed with 60 ml of pre-washed and equilibrated Ni-NTA Agarose (Qiagen 30210) followed by tumbling end-over-end, 45 min., 4° C., centrifugation 1000 rpm 5 min and letting resin settle 5 min. Supernatant was removed, the resin washed in the centrifuge vessel using 5 volumes of Base Buffer containing 0.2% Lubrol PX. Centrifugation was done again, then the supernatant discarded. The resin was poured onto a 0.8 μm membrane in a disposable filter unit (Nalge 450-0080), and washed with 5 volumes of Base Buffer containing 0.2% Lubrol PX. It was then washed with 30 volumes of Base Buffer containing 60 mM imidazole pH 7.5 at 4° C. The protein was eluted with 5 volumes of 25 mM Tris-Cl, 300 mM NaCl, 200 mM imidazole, 10 mM 2-mercaptoethanol, pH 7.5 at 4° C. by tumbling resin with buffer end-over-end, 30 min., 4° C. The resin was captured on a 0.2 μm membrane disposable filter unit (Millipore SCGP U02 RE) and the elute collected in the reservoir. The elute was concentrated using a 30 k MWCO centrifugal filter device (Sartorius Vivascience Vivacell 100, VC1022), to 20 ml. It was then dialyzed overnight at 4° C., two times against 2 L of 10% glycerol, 25 mM Tris-Cl, 300 mM NaCl, 0.2 mM EDTA, 0.2 mM DTT, pH 7.5 at 4° C. The protein was filtered using a 0.22 μm disposable filter unit (Millipore SCGP00525). The protein concentration was calculated from absorbance at 280 nm, using 280=0.67 cm-1 mg-1. Yield was 235 mg, total. The protein was stored at −80° C. Human Hormone-Sensitive Lipase (HSL) enzyme inhibition assay:
HSL enzyme activity was measured by a colorimetric assay using 2,3-dimercapto-1-propanol tributyrate (Aldrich, St. Louis, Mo.) as a substrate. Typically, 1.5 mM 2,3-dimercapto-1-propanol tributyrate (DMPT) in 100 mM MOPS, pH 7.2, 0.2 mg/ml fatty acid-free BSA was prepared by sonication at 4° C. to homogenous suspension. Test compounds (2 mM stock in DMSO) were diluted 3 fold in series in DMSO. Compound solutions were diluted 24 fold in 1.5 mM DMPT containing solution and 18 ul per well was added to 384-well microplates (Corning Costar). Twelve microliters per well of human HSL (15 ug/ml) was added and the reaction mixture was incubated at 37° C. for 20 minutes. Six microliters of 12 mM dithio-bis-(2-nitrobenzoic acid) (DTNB) in DMSO plus 1.2% SDS and 0.6% Triton X-100 were added and the mixture was incubated at room temperature for 15 minutes. Product production was monitored by reading absorbance at 405 nm on an Envision Reader (PerkinElmer Life and Analytical Sciences, Shelton, Conn.).

| Compound | IC50 [nM] |
| --- | --- |
| O=C(c1ccc(F)cc1)N1CCC(O)(C(=O)Nc2ccc(OC(F)(F)F)cc2)CC1 [Example 11, 1-(4-Fluoro-benzoyl)-4-hydroxy-piperidine-4-carboxylic acid (4-trifluoromethoxy-phenyl)-amide] | 550 |
| CCc1ccc(NC(=O)C2(N)CCN(S(=O)(=O)c3c(F)cccc3F)CC2)cc1 [Example 142, 4-Amino-1-(2,6-difluoro-benzenesulfonyl)-piperidine-4-carboxylic acid (4-ethyl-phenyl)-amide] | 100 |
| CCc1ccc(NC(=O)C2(N)CCN(S(=O)(=O)c3ccc(CC)cc3)CC2)cc1 [Example 140, 4-Amino-1-(4-ethyl-benzenesulfonyl)-piperidine-4-carboxylic acid (4-ethyl-phenyl)-amide] | 110 |
| CC(C)(C)c1ccc(NC(=O)N2CCC(N)(C(=O)Nc3ccc(F)cc3)CC2)cc1 [Example 87, 4-Amino-piperidine-1,4-dicarboxylic acid 1-[(4-tert-butyl-phenyl)-amide]-4-[(4-fluoro-phenyl)-amide]; hydrochloride] | 780 |
| CC(C)c1ccc(NC(=O)C2(N)CCN(C(=O)c3ccc(F)cc3)CC2)cc1 [Example 127, 4-Amino-1-(4-fluoro-benzoyl)-piperidine-4-carboxylic acid (4-isopropyl-phenyl)-amide] | 490 |
| CC(C)c1ccc(NC(=O)C2(N)CCN(S(=O)(=O)c3ccc(C(F)(F)F)cc3Cl)CC2)cc1 [Example 131, 4-Amino-1-(2-chloro-4-trifluoromethyl-benzenesulfonyl)-piperidine-4-carboxylic acid (4-isopropyl-phenyl)-amide] | 500 |
| CC(C)(C)c1ccc(NC(=O)C2(O)CCN(Cc3ccccc3)CC2)cc1 [Example 3, 1-Benzyl-4-hydroxy-piperidine-4-carboxylic acid (4-tert-butyl-phenyl)-amide] | 390 |
| CC(C)(C)c1ccc(NC(=O)N2CCC(N)(C(=O)Nc3ccc(C(C)(C)C)cc3)CC2)cc1 [Example 90, 4-Amino-piperidine-1,4-dicarboxylic acid bis-[(4-tert-butyl-phenyl)-amide]; hydrochloride] | 130 |
| CCc1ccc(NC(=O)C2(N)CCN(Cc3ccccc3C)CC2)cc1 [Example 152, 4-Amino-1-(2-methyl-benzyl)-piperidine-4-carboxylic acid (4-ethyl-phenyl)-amide] | 120 |
| CC(C)c1ccc(NC(=O)C2(N)CCN(S(=O)(=O)c3cccc(Cl)c3)CC2)cc1 [Example 117, 4-Amino-1-(3-chloro-benzenesulfonyl)-piperidine-4-carboxylic acid (4-isopropyl-phenyl)-amide] | 110 |
| CC(C)c1ccc(NC(=O)C2(N)CCN(C(=O)OCc3ccccc3)CC2)cc1 [Example 82, 4-Amino-4-(4-isopropyl-phenylcarbamoyl)-piperidine-1-carboxylic acid benzyl ester; hydrochloride] | 320 |
| CC(C)(C)c1ccc(NC(=O)C2(O)CCN(S(=O)(=O)c3ccccc3Cl)CC2)cc1 [Example 17, 1-(2-Chloro-benzenesulfonyl)-4-hydroxy-piperidine-4-carboxylic acid (4-tert-butyl-phenyl)-amide] | 60 |
| NC1(C(=O)Nc2ccc(OC(F)F)cc2)CCN(S(=O)(=O)c2ccccc2Cl)CC1 [Example 97, 4-Amino-1-(2-chloro-benzenesulfonyl)-piperidine-4-carboxylic acid (4-difluoromethoxy-phenyl)-amide] | 90 |
| CC(C)c1ccc(NC(=O)N2CCC(N)(C(=O)Nc3ccc(C(C)C)cc3)CC2)cc1 [Example 107, 4-Amino-piperidine-1,4-dicarboxylic acid bis-[(4-isopropyl-phenyl)-amide]; hydrochloride] | 80 |

Continued by falling IC50, values first:

| IC50 [nM] | Compound |
| --- | --- |
| 660 | COc1ccc(OC)c(NC(=O)N2CCC(O)(C(=O)Nc3ccc(C(C)(C)C)cc3)CC2)c1 [Example 49, 4-Hydroxy-piperidine-1,4-dicarboxylic acid 4-[(4-tert-butyl-phenyl)-amide] 1-[(2,5-dimethoxy-phenyl)-amide]] |
| 640 | CC(C)(C)c1ccc(NC(=O)C2(O)CCN(C(=O)c3cc(F)ccc3F)CC2)cc1 [Example 43, 1-(2,5-Difluoro-benzoyl)-4-hydroxy-piperidine-4-carboxylic acid (4-tert-butyl-phenyl)-amide] |
| 200 | CC(C)c1ccc(NC(=O)C2(N)CCN(C(=O)c3ccccc3OC(F)(F)F)CC2)cc1 [Example 123, 4-Amino-1-(2-trifluoromethoxy-benzoyl)-piperidine-4-carboxylic acid (4-isopropyl-phenyl)-amide] |
| 180 | O=C(Nc1ccc(OC(F)(F)F)cc1)C1(O)CCN(Cc2ccccc2Cl)CC1 [Example 63, 1-(2-Chloro-benzyl)-4-hydroxy-piperidine-4-carboxylic acid (4-trifluoromethoxy-phenyl)-amide] |
| 120 | CCc1ccc(NC(=O)C2(N)CCN(S(=O)(=O)c3ccc(F)cc3Cl)CC2)cc1 [Example 146, 4-Amino-1-(2-chloro-4-fluoro-benzenesulfonyl)-piperidine-4-carboxylic acid (4-ethyl-phenyl)-amide] |
| 120 | CC(C)c1ccc(NC(=O)C2(N)CCN(C(=O)Nc3ccc(C(C)(C)C)cc3)CC2)cc1 [Example 89, 4-Amino-piperidine-1,4-dicarboxylic acid 1-[(4-tert-butyl-phenyl)-amide]-4-[(4-isopropyl-phenyl)-amide]; hydrochloride] |
| 120 | O=C(Nc1ccc(OC(F)(F)F)cc1)C1(O)CCN(S(=O)(=O)c2ccccc2Cl)CC1 [Example 10, 1-(2-Chloro-benzenesulfonyl)-4-hydroxy-piperidine-4-carboxylic acid (4-trifluoromethoxy-phenyl)-amide] |

From US8399676B2, “Piperidine derivatives” (Hoffman-La Roche Inc., priority 2009, dated 2013)
